# According to the supplement of paper PMC10307832:
# Key:
# Test in all cases: relative viability (nuclei count vs DMSO), 5 days (fraction); higher = more cells survive
# RO-3306 + Luminespib = compound: C1=CC2=C(C=CC(=C2)C=C3C(=O)NC(=NCC4=CC=CS4)S3)N=C1 [RO-3306] + CCNC(=O)c1noc(-c2cc(C(C)C)c(O)cc2O)c1-c1ccc(CN2CCOCC2)cc1 [Luminespib] (partner 0.01 µM)
# Procedure, shortened: (§1)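 Lung cancer cell lines were pin-tool dosed in 1536-well plates on the day after seeding, with either a lone drug or a fixed anchor-drug dose plus five library-drug doses (not always all listed) in √10 steps. Nuclei were counted on 4× images after 5 days. Relative viability is the ratio of treated-well to vehicle-well nuclei counts, with each value a median of duplicate plates.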
# RO-3306 + Pictilisib = compound: C1=CC2=C(C=CC(=C2)C=C3C(=O)NC(=NCC4=CC=CS4)S3)N=C1 [RO-3306] + CS(=O)(=O)N1CCN(Cc2cc3nc(-c4cccc5[nH]ncc45)nc(N4CCOCC4)c3s2)CC1 [Pictilisib] (partner 1 µM)
# Procedure, shortened: as §1
# RO-3306 + Alpelisib = compound: C1=CC2=C(C=CC(=C2)C=C3C(=O)NC(=NCC4=CC=CS4)S3)N=C1 [RO-3306] + Cc1nc(NC(=O)N2CCC[C@H]2C(N)=O)sc1-c1ccnc(C(C)(C)C(F)(F)F)c1 [Alpelisib] (partner 2 µM)
# Procedure, shortened: as §1
# [1] = compound: O=S(=O)(c1ccccc1)N(CC(F)(F)F)c1ccc(C(O)(C(F)(F)F)C(F)(F)F)cc1 + CC(C)C[C@H](NC(=O)[C@H](Cc1ccccc1)NC(=O)c1cnccn1)B(O)O [Bortezomib] (partner 0.002 µM)
# Procedure, shortened: as §1
Cell Line,relative viability (RO-3306 + Luminespib; first compound 0.01 µM),relative viability (RO-3306 + Luminespib; first compound 0.03162 µM),relative viability (RO-3306 + Luminespib; first compound 0.1 µM),relative viability (RO-3306 + Luminespib; first compound 0.3162 µM),relative viability (RO-3306 + Luminespib; first compound 1 µM),relative viability (RO-3306 + Pictilisib; first compound 0.01 µM),relative viability (RO-3306 + Pictilisib; first compound 0.03162 µM),relative viability (RO-3306 + Pictilisib; first compound 0.1 µM),relative viability (RO-3306 + Pictilisib; first compound 0.3162 µM),relative viability (RO-3306 + Pictilisib; first compound 1 µM),relative viability (RO-3306 + Alpelisib; first compound 0.01 µM),relative viability (RO-3306 + Alpelisib; first compound 0.03162 µM),relative viability (RO-3306 + Alpelisib; first compound 0.1 µM),relative viability (RO-3306 + Alpelisib; first compound 0.3162 µM),relative viability (RO-3306 + Alpelisib; first compound 1 µM),relative viability ([1]; first compound 0.8 µM),relative viability ([1]; first compound 2.53 µM),relative viability ([1]; first compound 8 µM)
201T,1.02,1.05,1.02,1.01,1.05,0.671,0.616,0.668,0.663,0.559,1.03,1.01,1.05,0.973,1.04,1.02,1.04,1
HOP-62,1.02,0.926,0.976,0.925,0.894,0.898,0.564,0.759,0.686,0.471,1.02,0.992,0.933,1.04,0.986,0.39,0.634,0.93
PC-3 [JPC-3],0.642,0.638,0.778,0.667,0.864,0.725,0.717,0.672,0.769,0.882,1.1,1,1.02,0.98,0.98,0.642,0.743,0.744
COR-L23,0.648,0.591,0.778,0.868,0.562,0.816,–,0.835,0.77,0.67,0.898,–,0.866,0.631,0.75,1.18,0.945,0.914
ABC-1,0.548,0.719,0.527,0.658,0.898,0.688,0.725,0.712,0.732,0.866,1.07,1.07,1.22,0.939,1.22,0.27,0.297,0.293
NCI-H1792,0.587,–,0.568,0.349,0.341,0.288,–,0.288,0.287,0.224,0.803,–,0.668,0.757,0.457,0.973,0.842,0.737
COR-L 105,1.07,0.885,0.606,0.65,0.547,0.355,0.364,0.361,0.47,0.366,1.36,0.835,1.06,1.09,0.998,0.846,0.75,0.702
NCI-H1915,0.975,0.493,0.879,0.805,0.749,0.919,0.827,0.878,0.917,0.615,1.11,0.988,1.08,1.11,1.05,1.08,0.964,0.974
PC-14,0.251,0.147,0.161,0.139,0.15,0.892,0.539,0.648,0.592,0.511,0.981,–,0.939,0.953,0.996,0.986,0.88,0.496
